Converted amounts (≈) assume the structure as drawn. “And” between values parts separate entries of the source, which are not always exact repeats. Equal entries are not always repeated. “Also recorded” adds a separate entry of the source. Where two headings read alike, the source gives them in different places. Blank lines part the entries; values can stand above or below the compound they belong to.
Legend:
[1] = target: T1, recombinant ICL (isocitrate lyase) from C. albicans ATCC10231 (Candida albicans, UniProt Q9P8Q7); experiment: biochemical
T1 construct: made in house
Experimental: Isolated diketopiperazines were tested for ICL inhibitory activity according to methods reported previously. […] To determine the type of inhibition, kinetic analysis was performed with cyclo(L-Phe-L-Val) (inhibitor) and phenylhydrazine […]. The inhibitor constant (Ki) was calculated from the Dixon plot.
S. puniceus Act1085 was used as the diketopiperazine-producing strain. C. albicans SC5314 (ATCC MYA-2876) (wild-type), MRC10 (Δicl) (icl-deletion mutant), MRC11 (Δicl + ICL) (icl-deletion mutant), […], ATCC18804, and ATCC11006 were used for the growth assay. C. albicans ATCC10231 was used to obtain recombinant ICL. Prof. Michael C. Lorenz (University of Texas Health Science Center, Houston, TX, USA) kindly provided the ICL mutants.
Before evaluation of the ICL inhibitory activity of the test compounds, the recombinant ICL from C. albicans was prepared according to methods described in a previous report. The ICL inhibitory activity of the test compounds was determined according to a previously described method. The ICL inhibition assay is based on the principle that glyoxylate phenylhydrazone forms in the reaction reagent after treatment with isocitrate and phenylhydrazine. Each test compound was dissolved in DMSO. The reaction mixture consisted of 20 mM sodium phosphate buffer (pH 7.0), 1.27 mM threo-DL(+)isocitrate, 3.75 mM MgCl2, 4.1 mM phenylhydrazine, and 2.5 μg/mL purified ICL and was incubated with or without the test compounds at a concentration range of 1–128 μg/mL at 37 °C for 30 min. The increase in intensity of absorbance resulting from the formation of glyoxylate phenylhydrazone was observed using a spectrophotometer (Shimadzu) at a wavelength of 324 nm. The inhibitory activity of the test compound was calculated relative to that of the DMSO control (n = 3). The methods for determination of the IC50 value and ICL enzyme concentrations have been described in previous reports. A known ICL inhibitor, 3-nitropropionate, was used as a reference control.

[2] = test system: C. albicans SC5314; experiment: In vitro growth assay (MIC) in YNB broth; assay type: cell-based, Candida albicans; conditions: 28 °C
From the text: (§1) The glyoxylate cycle is necessary for virulence in C. albicans, which can survive in macrophages under abundant carbon sources, such as fatty acids or their breakdown products. When C. albicans is phagocytosed by a macrophage, the shift in metabolism from glycolysis to the glyoxylate cycle is activated so that the cells can utilize C2 carbon sources. It was expected that ICL inhibitors would reduce the nutrient uptake capacity and impede survival of the pathogen in the macrophage. To determine whether cyclo(L-Phe-L-Val) affects C2 substrate use, C. albicans strains SC5314, ATCC10231, ATCC10259, ATCC11006, and ATCC18804 were grown in YNB liquid broth containing either 2% glucose or 2% acetate as the sole carbon source.
(§2) C. albicans strains were cultured in YNB broth containing 2% glucose at 28 °C for 24 h, centrifuged at 15,000× g for 1 min, and washed twice with sterile distilled water. […] Additional DMSO was added to the medium at a final concentration of 0.5%. The fungal strain culture (20 μL) was poured into a 96-well assay plate at a final concentration of 1 × 10^4 cells/mL and total volume of 100 μL. The culture plates were incubated at 28 °C for 3 days. The positive control was amphotericin B, which is a known antifungal compound.

[3] = test system: C. albicans ATCC18804; experiment: In vitro growth assay (MIC) in YNB broth; assay type: cell-based; conditions: Candida albicans, ATCC18804, 72 h, 28 °C
From the text: as §1, §2

[4] = test system: C. albicans ATCC11006; experiment: In vitro growth assay (MIC) in YNB broth; assay type: cell-based; conditions: Candida albicans, ATCC11006, 72 h, 28 °C
From the text: as §1, §2

[5] = test system: C. albicans ATCC10259; experiment: In vitro growth assay (MIC) in YNB broth; assay type: cell-based; conditions: Candida albicans, ATCC10259, 72 h, 28 °C
From the text: as §1, §2

[6] = test system: C. albicans ATCC10231; experiment: In vitro growth assay (MIC) in YNB broth; assay type: cell-based; conditions: Candida albicans, ATCC10231, 72 h, 28 °C
From the text: as §1, §2

[7] = test system: icl mRNA expression; experiment: icl expression analysis by semi-quantitative RT-PCR; assay type: cell-based, Candida albicans; conditions: SC5314 and MRC11, 2% potassium acetate plus 8, 16, 32 μg/mL compound, 4 h, 28 °C
Experimental: (§3) To determine whether the cell phenotype of the icl-deletion mutant is affected by the presence of cyclo(L-Phe-L-Val), a growth assay was conducted using C. albicans SC5314 (wild type) and two icl-deletion mutants (MRC10 and MRC11). After pre-culture, these strains were streaked onto YNB agar containing 2% glucose or 2% potassium acetate with or without 32 μg/mL cyclo(L-Phe-L-Val). All strains grew normally on both the plates with glucose and with glucose plus the compound. […] We further conducted semi-quantitative reverse-transcription (RT)-PCR to assess the effects of cyclo(L-Phe-L-Val) on ICL expression. No ICL-specific PCR product was detected in the cultures when SC5314 and MRC11 were grown in YNB liquid broth containing glucose. […] GPDH expression was detected in all treatments regardless of cyclo(L-Phe-L-Val) exposure.
(§4) Figure 3 Analysis of growth phenotypes and icl mRNA expression. […] Total RNA was prepared from these cells, and icl mRNA expression was analyzed by semi-quantitative RT-PCR. The GPDH housekeeping gene was evaluated as a loading control.
(§5) C. albicans SC5314 (wild type) and icl-deletion mutants (MRC10 and MRC11) were cultured in YNB broth containing 2% glucose at 28 °C on a rotary shaker for 24 h. […] RNA extraction, cDNA synthesis, and semi-quantitative RT-PCR were performed using previously described methods. […]

[8] = test system: C. albicans SC5314 (wild type) and icl-deletion mutants (MRC10 and MRC11); experiment: Growth phenotype on YNB agar plates; assay type: cell-based, Candida albicans; conditions: 2 days, 28 °C
Experimental: as §3, §4, §5

[9] = test system: C. albicans strains SC5314, ATCC10231, ATCC10259, ATCC11006, and ATCC18804; experiment: In vitro growth assay, summary over five strains; assay type: cell-based, Candida albicans
From the text: as §1, §2

[10] = ICL IC50, 37 °C, 30 min, pH 7.0, n = 3
[11] = Candida albicans, SC5314, 2% glucose, 72 h, read-out: MIC
[12] = Candida albicans, SC5314, 72 h, 2% glucose, read-out: MIC
[13] = Candida albicans, SC5314, 72 h, 2% potassium acetate, read-out: MIC

T1 sequence (Q9P8Q7 whole entry): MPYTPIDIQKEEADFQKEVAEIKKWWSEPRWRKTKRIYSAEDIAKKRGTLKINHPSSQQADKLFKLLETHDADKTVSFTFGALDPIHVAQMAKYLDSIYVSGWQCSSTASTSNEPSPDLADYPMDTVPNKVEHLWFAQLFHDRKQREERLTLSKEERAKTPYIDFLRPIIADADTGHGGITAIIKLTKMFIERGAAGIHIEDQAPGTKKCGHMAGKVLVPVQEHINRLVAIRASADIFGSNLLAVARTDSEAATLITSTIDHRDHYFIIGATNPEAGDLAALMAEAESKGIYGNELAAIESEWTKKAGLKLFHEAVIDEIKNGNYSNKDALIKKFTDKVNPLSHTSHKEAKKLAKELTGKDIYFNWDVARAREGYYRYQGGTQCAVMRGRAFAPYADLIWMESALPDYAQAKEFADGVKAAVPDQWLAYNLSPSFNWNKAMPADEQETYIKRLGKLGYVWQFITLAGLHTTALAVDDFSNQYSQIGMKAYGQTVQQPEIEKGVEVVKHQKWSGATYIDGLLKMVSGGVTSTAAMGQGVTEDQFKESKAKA

Structure (SMILES): O=C1NC(Cc2ccc(O)cc2)C(=O)N2CCCC12 [Cyclo(L-Pro-L-Tyr), cyclo(L-Pro-L-Tyr)]
IC50 [1, 10]: > 984 µM
MIC [2, 11]: > 256 µg/mL

Structure (SMILES): O=C1N[C@@H](Cc2ccccc2)C(=O)N2CCC[C@@H]12 [Cyclo(L-Phe-L-Pro), cyclo(L-Phe-L-Pro)]
MIC [2, 11]: > 256 µg/mL

MIC ([3]; 2% glucose): 1 µg/mL (≈ 1.08 µM)
MIC ([3]; 2% potassium acetate): 0.5 µg/mL (≈ 0.541 µM)
MIC ([4]; 2% glucose): 0.5 µg/mL (≈ 0.541 µM)
MIC ([4]; 2% potassium acetate): 0.5 µg/mL (≈ 0.541 µM)
MIC ([5]; 2% glucose): 1 µg/mL (≈ 1.08 µM)
MIC ([5]; 2% potassium acetate): 0.5 µg/mL (≈ 0.541 µM)
MIC ([6]; 2% glucose): 1 µg/mL (≈ 1.08 µM)
MIC ([6]; 2% potassium acetate): 0.5 µg/mL (≈ 0.541 µM)
MIC [2, 12]: 1 µg/mL (≈ 1.08 µM)
MIC [2, 13]: 0.5 µg/mL (≈ 0.541 µM)
Structure (SMILES): C[C@@H]1[C@H](O)[C@@H](C)/C=C/C=C/C=C/C=C/C=C/C=C/C=C/[C@H](O[C@@H]2O[C@H](C)[C@@H](O)[C@H](N)[C@@H]2O)C[C@@H]2O[C@](O)(C[C@@H](O)C[C@@H](O)[C@H](O)CC[C@@H](O)C[C@@H](O)CC(=O)O[C@H]1C)C[C@H](O)[C@H]2C(=O)O [Amphotericin B, reference compound]

Structure (SMILES): CC(C)[C@@H]1NC(=O)[C@@H]2CCCN2C1=O [Cyclo(L-Pro-L-Val), cyclo(L-Pro-L-Val)]
IC50 [1, 10]: 516 µM
MIC [2, 12]: > 256 µg/mL

Structure (SMILES): CC(C)C[C@@H]1NC(=O)[C@@H]2CCCN2C1=O [Cyclo(L-Pro-L-Leu), cyclo(L-Pro-L-Leu)]
IC50 [1, 10]: 534 µM
MIC [2, 12]: > 256 µg/mL

Structure (SMILES): CC(C)C1NC(=O)C(Cc2ccccc2)NC1=O [Cyclo(L-Phe-L-Val), cyclo(L-Phe-L-Val)]
Ki [1]: 64.9 µM
IC50 [1, 10]: 110 µM and 113 µM
type of inhibition ([1]; kinetic analysis): mixed inhibitor
intensity of PCR band of icl product (icl transcript level) [7]: decreased; also recorded: declined
growth on YNB agar ([8]; 2% glucose plus 32 μg/mL compound): grew normally
growth on YNB agar ([8]; 2% potassium acetate plus 32 μg/mL compound): none of the tested strains exhibited growth; also recorded: no growth
MIC ([3]; 2% glucose): > 256 µg/mL
MIC ([3]; 2% potassium acetate): 64 µg/mL (≈ 260 µM)
MIC ([4]; 2% glucose): > 256 µg/mL
MIC ([4]; 2% potassium acetate): 32 µg/mL (≈ 130 µM)
MIC ([5]; 2% glucose): > 256 µg/mL
MIC ([5]; 2% potassium acetate): 64 µg/mL (≈ 260 µM)
MIC ([6]; 2% glucose): > 256 µg/mL
MIC ([6]; 2% potassium acetate): 32 µg/mL (≈ 130 µM)
MIC [2, 12]: > 256 µg/mL
MIC [2, 13]: 32 µg/mL (≈ 130 µM)
MIC ([9]; Candida albicans, acetate as sole carbon source, range over five strains, read-out: minimum inhibitory concentration): 32 to 64 µg/mL (≈ 130 to 260 µM)
inhibitory effect on C. albicans growth ([9]; glucose as sole carbon source): no inhibitory effect

Structure (SMILES): O=C(O)CC[N+](=O)[O-] [3-Nitropropionate, reference compound]
ICL IC50 ([1]; 37 °C, 30 min, pH 7.0, n = 3): 1.90 ± 1.57 µg/mL
IC50 ([1]; 37 °C, 30 min, pH 7.0, n = 3, read-out: ICL IC50): 15.9 ± 2.13 µM
MIC ([2]; 2% glucose, 72 h): >256 µg/mL

From PMC6600163, “Inhibitory Effects of Diketopiperazines from Marine-Derived Streptomyces puniceus on the Isocitrate Lyase of Candida albicans” (Molecules, 2019)
